According to patent publication US20240174632A1, “INHIBITING HUMAN INTEGRIN (ALPHA-4) (BETA-7)” (Morphic Therapeutic, Inc., priority 2019, published 2024):
pIC50: −log10 of the molar value.

Key:
integrin α4β7 = molecular target: T1, integrin α4β7 (Homo sapiens, UniProt P13612+P26010); experiment: Fluorescence Polarization (FP) assay for α4β7 binding, competition with fluorescein-labeled peptide; conditions: 6.5 nM integrin α4β7, 3 nM fluorescein-labeled peptide, 2 mM MnCl2; Tables 3A, 3B, 4; read-out: FP Assay (Example 5) IC50
T1 sequence (P13612 34-1032): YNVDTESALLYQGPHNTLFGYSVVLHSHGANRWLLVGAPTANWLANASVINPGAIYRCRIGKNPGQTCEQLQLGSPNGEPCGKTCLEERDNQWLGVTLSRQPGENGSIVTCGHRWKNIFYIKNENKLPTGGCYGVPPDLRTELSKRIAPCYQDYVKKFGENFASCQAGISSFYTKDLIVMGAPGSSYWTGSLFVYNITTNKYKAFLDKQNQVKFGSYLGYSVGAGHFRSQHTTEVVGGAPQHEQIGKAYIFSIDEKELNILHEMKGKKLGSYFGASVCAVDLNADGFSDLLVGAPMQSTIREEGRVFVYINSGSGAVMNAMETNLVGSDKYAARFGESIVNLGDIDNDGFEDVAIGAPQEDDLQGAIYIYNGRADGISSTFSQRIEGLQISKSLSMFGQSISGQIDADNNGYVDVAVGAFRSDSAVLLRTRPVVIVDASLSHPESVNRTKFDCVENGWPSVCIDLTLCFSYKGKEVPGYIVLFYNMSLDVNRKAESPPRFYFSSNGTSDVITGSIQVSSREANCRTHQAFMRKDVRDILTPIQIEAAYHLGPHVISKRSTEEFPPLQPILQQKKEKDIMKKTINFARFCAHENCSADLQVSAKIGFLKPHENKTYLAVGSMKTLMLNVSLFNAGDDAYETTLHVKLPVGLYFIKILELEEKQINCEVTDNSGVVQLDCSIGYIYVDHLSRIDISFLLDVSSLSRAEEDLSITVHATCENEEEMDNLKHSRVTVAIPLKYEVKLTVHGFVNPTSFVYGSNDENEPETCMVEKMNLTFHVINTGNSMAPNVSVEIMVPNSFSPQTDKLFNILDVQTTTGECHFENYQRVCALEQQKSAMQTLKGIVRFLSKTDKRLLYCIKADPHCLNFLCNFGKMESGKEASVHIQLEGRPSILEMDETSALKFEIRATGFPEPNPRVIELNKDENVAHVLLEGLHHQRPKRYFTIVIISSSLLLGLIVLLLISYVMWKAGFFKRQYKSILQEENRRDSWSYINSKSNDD
T1 sequence (P26010 20-798): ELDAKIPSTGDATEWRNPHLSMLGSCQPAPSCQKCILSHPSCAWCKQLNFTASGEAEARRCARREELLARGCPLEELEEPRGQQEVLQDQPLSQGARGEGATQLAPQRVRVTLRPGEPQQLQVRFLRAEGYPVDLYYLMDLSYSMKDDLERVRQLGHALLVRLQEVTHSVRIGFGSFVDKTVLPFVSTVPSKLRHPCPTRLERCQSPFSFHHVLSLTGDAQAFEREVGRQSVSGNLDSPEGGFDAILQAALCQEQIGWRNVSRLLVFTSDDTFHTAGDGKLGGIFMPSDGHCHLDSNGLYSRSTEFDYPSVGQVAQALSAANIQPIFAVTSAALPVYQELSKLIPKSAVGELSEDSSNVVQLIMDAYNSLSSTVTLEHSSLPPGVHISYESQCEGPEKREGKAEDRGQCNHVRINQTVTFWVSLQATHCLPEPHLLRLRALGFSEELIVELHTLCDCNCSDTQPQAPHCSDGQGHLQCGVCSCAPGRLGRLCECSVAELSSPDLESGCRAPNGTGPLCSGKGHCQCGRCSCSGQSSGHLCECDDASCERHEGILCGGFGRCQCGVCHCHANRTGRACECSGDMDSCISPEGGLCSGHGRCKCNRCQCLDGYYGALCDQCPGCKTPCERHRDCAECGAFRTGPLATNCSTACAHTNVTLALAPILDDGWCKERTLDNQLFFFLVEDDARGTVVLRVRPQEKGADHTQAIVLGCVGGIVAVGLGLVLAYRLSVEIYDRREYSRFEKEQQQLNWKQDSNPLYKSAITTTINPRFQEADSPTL
Method: (§1) Three in vitro assays were used to examine the α4β7 mechanistic process used by cells: 1) ligand:receptor affinity, 2) the avidity of those interactions on a cell's surface, and 3) how those interactions fare under an imposing force. In Example 5, a Fluorescence Polarization (FP) assay is used to measure compound activity through binding competition with the fluorescein-labeled peptide. In Example 6, the potency of compounds against α4β7 is measured in the cell-based ligand binding assay (LBA), using RPMI 8866 cells incubated with the compound samples in competition with soluble MAdCAM-1 ligand. In Example 7, activity of compounds is evaluated in a cell adhesion assay that mechanistically tests what occurs in vivo when trafficking cells utilize α4β7 to adhere to MAdCAM-1 expressing HEVs of the gut during the extravasation process. […] Unattached cells are removed and the remaining adherent cells are quantified.
Fluorescence Polarization (FP) assays were used to measure compound activity through binding competition with the fluorescein-labeled peptide […]{Lys(FITC)}. […] After the fluorescein-labeled peptide was added, the assay was incubated at 22° C. for 1 hour and fluorescence polarization was measured. IC50 values were determined by non-linear regression, four-parameter curve fitting.

α4β7 [1] = molecular target: T2, α4β7 (Homo sapiens, UniProt P13612+P26010); experiment: Cell-based ligand binding assay (LBA), RPMI 8866 cells, competition with soluble MAdCAM-1-Fc; conditions: MAdCAM-1-Fc Dylight 650, flow cytometry, Tables 3A, 3B, 4, read-out: LB Assay (Example 6) IC50
T2 construct: endogenous in cells; host or cells: RPMI 8866 cells
T2 sequence (P13612 34-1032): T1 sequence (P13612 34-1032)
T2 sequence (P26010 20-798): T1 sequence (P26010 20-798)
Method: as §1
5 ul of 33 nM MAdCAM-1-Fc fluorescently labeled with Dylight 650 in 50 mM HEPES pH 7.3, 150 mM sodium chloride, and 1% bovine serum albumin was added to the cells. […] Fluorescence intensity for each cell was measured via flow cytometry. […] Median fluorescence intensity for Dylight 650 was determined for each sample and concentration-response curves were analyzed for IC50 values using 4-parameter non-linear regression analysis.

α4β7 [2] = molecular target: T2, α4β7; experiment: Cell adhesion assay, RPMI8866 cells adhering to MAdCAM coated plates; assay type: cell-based; conditions: RPMI8866 cells on recombinant human MAdCAM coated plates; Tables 3A, 3B, 4; read-out: CA Assay (Example 7) IC50
Method: as §1, with “quantified. […]” for “quantified.”
To each well of a 96 well plate, 100 ug of recombinant human MAdCAM in 100 ul PBS is added and incubated overnight at 4° C. […] Plate is incubated on shaker for 2 minutes at 200 RPM followed by another 8 minutes off shaker before having the luminescence read on a Biotek Citation 5 plate reader. Raw data is converted to % inhibition compared to bottom of curve and analyzed using a 4-parameter non linear curve in Prism to determine IC50 and IC90.

pIC50 (integrin α4β7)	pIC50 (α4β7 [1])	pIC50 (α4β7 [2])	Compound
> 8.00	≥ 8.00	–	COc1ccc(C)c(-c2cc(C)c(F)c([C@H](CC(=O)O)NC(=O)C(CC(C)C)n3cc(CCN4CCC4)c(C(F)(F)F)cc3=O)c2)c1C (single isomer, unassigned) [AG-P2]
> 8.00	–	> 8.30	Cc1cc(=O)n([C@@H](CC(C)C)C(=O)N[C@@H](CC(=O)O)c2cc(-c3c(C)cccc3C)cc(F)c2F)cc1CCN1CC(F)C1 [D-P2, (3S)-3-(4,5-difluoro-2′,6′-dimethylbiphenyl-3-yl)-3-(2-(5-(2-(3-fluoroazetidin-1-yl)ethyl)-4-methyl-2-oxopyridin-1(2H)-yl)-4-methylpentanamido)propanoic acid]
